Values of other authors, collected in patent publication US9265822B2 (priority 2009, dated 2016).

Tested on: 2009 H1N1 swine flu virus

SMILES	resistance or susceptibility of the virus
NC12CC3CC(CC(C3)C1)C2 [amantadine]	resistant
CCOC(=O)C1=C[C@@H](OC(CC)CC)[C@H](NC(C)=O)[C@@H](N)C1 [oseltamivir]	susceptible
CC(N)C12CC3CC(CC(C3)C1)C2 (stereo not shown) [rimantadine]	resistant
CC(=O)N[C@H]1[C@H]([C@H](O)[C@H](O)CO)OC(C(=O)O)=C[C@@H]1N=C(N)N [zanamivir]	susceptible
